The text below walks through data of PubChem BioAssay (NCI).

Values joined by “and” are separate entries in the source; they are usually repeats but may differ in a detail not shown here. Equal values may be shown once.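 Method: 48-hour compound exposure of cells in 96-well plates, five concentrations, linear interpolation of endpoints. GI50 is the concentration that inhibits growth by half. The concentration for full growth arrest is given as TGI.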 A value given as a limit tells only on which side of the number the result lay.

Some test systems named below: HOP-92 NSCLC; SK-MEL-28 melanoma; A549 NSCLC; HS 578T breast; HCT-15 colon; MCF7 breast; OVCAR-8 ovarian; HT29 colon; BT-549 breast; SK-OV-3 ovarian.
Common to all, as to assay: inhibition of tumour cell growth, NCI panel, 48 h

With `Nc1ccc(C#Cc2cncnc2Nc2ccc(OCc3cccc(F)c3)c(Cl)c2)cc1`, the GI50 with HOP-92 NSCLC is 10.6 µM; with SK-MEL-28 melanoma, over 19 µM; in the test on A549 NSCLC, 8.58 µM; in the test with HS 578T breast it was 6.07 µM; in the test with HCT-15 colon, 7.32 µM; in the test on MCF7 breast, 11.9 µM. The GI50 in the test with OVCAR-8 ovarian is 11.9 µM; with HT29 colon it was 10.1 µM; in the test with BT-549 breast, over 21 µM; with SK-OV-3 ovarian, 8.88 µM. Further, the TGI is over 25 µM in the test on HOP-92 NSCLC; over 25 µM with SK-MEL-28 melanoma; over 25 µM in the test with A549 NSCLC; 24.2 µM with HS 578T breast; over 25 µM in the test with HCT-15 colon; over 25 µM with MCF7 breast. The TGI in the test on OVCAR-8 ovarian, in the test with HT29 colon, with BT-549 breast and with SK-OV-3 ovarian was over 25 µM throughout.
Turning to `C#CCN1CCN(C(=S)N/N=C(\C)c2ccccn2)CC1`, the GI50 with HOP-92 NSCLC is 3.43 µM; in the test on SK-MEL-28 melanoma, 2.09 µM; in the test with A549 NSCLC, 0.273 µM; in the test with HS 578T breast it was 1.94 µM; with HCT-15 colon it was 0.019 µM; in the test with MCF7 breast, under 0.001 µM. Besides, the values for the GI50 in the test on OVCAR-8 ovarian, in the test with HT29 colon and in the test on SK-OV-3 ovarian were 0.0131 µM, 0.0028 µM and 1.57 µM, respectively. The TGI in the test with HOP-92 NSCLC was 5.13 µM and 5.16 µM; with SK-MEL-28 melanoma, 8.06 µM and 7.04 µM; in the test with A549 NSCLC, 8.09 µM and 2.16 µM; in the test on HS 578T breast, 6.34 µM and 6.02 µM; with HCT-15 colon, 4.19 µM; in the test with MCF7 breast, 2.73 µM and 2.9 µM. Moreover, the TGI with OVCAR-8 ovarian is 3.5 µM and 3.46 µM; with HT29 colon, 3.74 µM and 8.33 µM; in the test on BT-549 breast, 3.29 µM and 3.25 µM; with SK-OV-3 ovarian, 2.91 µM and 5.09 µM.
For the molecule `CS(=O)(=O)N1CCN(Cc2cc3nc(-c4cccc5[nH]ncc45)nc(N4CCOCC4)c3s2)CC1` (tested in a mixture with another compound), the GI50 with HOP-92 NSCLC was 0.114 µM; in the test on SK-MEL-28 melanoma, 0.21 µM; in the test with A549 NSCLC, 0.0213 µM; in the test on HS 578T breast, 0.0496 µM; in the test with HCT-15 colon, 0.207 µM; in the test on MCF7 breast, 0.0509 µM. Moreover, the GI50 is 0.154 µM in the test on OVCAR-8 ovarian, 0.074 µM in the test with HT29 colon, 0.0316 µM in the test on BT-549 breast and 0.0559 µM with SK-OV-3 ovarian. Further, the TGI with HOP-92 NSCLC is 0.829 µM; in the test with A549 NSCLC, 0.0487 µM; with HS 578T breast, 0.612 µM; in the test on HCT-15 colon it was over 100 µM; in the test with BT-549 breast, 0.102 µM; in the test with SK-OV-3 ovarian, 0.328 µM.
As to `CC[N+](CC)=c1ccc2nc3c(cc(NCc4ccccc4)c4ccccc43)oc-2c1`, the GI50 in the test on HOP-92 NSCLC was 0.217 µM; in the test on SK-MEL-28 melanoma, 1.2 µM; in the test with A549 NSCLC it was 0.215 µM; with HS 578T breast it was 0.522 µM; with HCT-15 colon it was 0.378 µM; with MCF7 breast, 0.165 µM. The GI50 in the test with OVCAR-8 ovarian is 0.362 µM; with HT29 colon it was 0.189 µM; with BT-549 breast, 1.14 µM; in the test with SK-OV-3 ovarian, 1.12 µM. In addition, the TGI amounted to 1.33 µM with HOP-92 NSCLC; 2.47 µM with SK-MEL-28 melanoma; 0.56 µM with A549 NSCLC; 3.27 µM in the test on HS 578T breast; 2.29 µM with HCT-15 colon; 0.474 µM in the test on MCF7 breast. Besides, the TGI with OVCAR-8 ovarian is 2.38 µM; in the test with HT29 colon, 0.773 µM; in the test with BT-549 breast, 2.51 µM; in the test on SK-OV-3 ovarian, 2.32 µM.
In the case of `CCCCn1c2c(c3ccccc3c1=O)C(=O)c1ccccc1-2`, the TGI with HOP-92 NSCLC, with SK-MEL-28 melanoma, in the test with A549 NSCLC, in the test on HS 578T breast, in the test on HCT-15 colon and with MCF7 breast was over 100 µM in each case. Further, the TGI in the test with OVCAR-8 ovarian, in the test with HT29 colon, in the test on BT-549 breast and in the test on SK-OV-3 ovarian was over 100 µM each time.
As to `Nc1c(C(=O)c2cccc(OCCN3CCOCC3)c2)cnn1-c1ccc(F)cc1`, the GI50 with HOP-92 NSCLC, in the test on SK-MEL-28 melanoma, in the test on A549 NSCLC, in the test with HS 578T breast, in the test on HCT-15 colon and in the test with MCF7 breast was over 25 µM in each case. In addition, the GI50 in the test on OVCAR-8 ovarian, with HT29 colon, in the test with BT-549 breast and in the test on SK-OV-3 ovarian was over 25 µM each time. Also, the TGI with HOP-92 NSCLC, with SK-MEL-28 melanoma, in the test with A549 NSCLC, in the test on HS 578T breast, in the test with HCT-15 colon and with MCF7 breast was over 25 µM in each case. In addition, the TGI with OVCAR-8 ovarian, in the test with HT29 colon, with BT-549 breast and in the test on SK-OV-3 ovarian was over 25 µM in each case.
Take `CCCCCCCCOc1ccc(/C=N/Nc2cc(C)nc3ccc(Cl)cc23)cc1`: the GI50 was 1.51 µM in the test with HOP-92 NSCLC; 1.78 µM in the test on SK-MEL-28 melanoma; 1.7 µM in the test with A549 NSCLC; 2.23 µM with HS 578T breast; 1.85 µM with HCT-15 colon; 1.94 µM in the test on MCF7 breast. For the same molecule, the GI50 with OVCAR-8 ovarian was 2.14 µM; in the test on HT29 colon, 1.81 µM; in the test on BT-549 breast, 14.2 µM; in the test on SK-OV-3 ovarian it was 1.65 µM. Besides, the TGI turned out to be 3.02 µM in the test on HOP-92 NSCLC; 3.2 µM in the test with SK-MEL-28 melanoma; 3.52 µM in the test on A549 NSCLC; 4.51 µM in the test with HS 578T breast; 3.38 µM in the test with HCT-15 colon; 3.91 µM with MCF7 breast. The TGI in the test on OVCAR-8 ovarian turned out to be 4.84 µM; in the test on HT29 colon it was 3.34 µM; in the test on BT-549 breast, 31.4 µM; in the test on SK-OV-3 ovarian it was 3.1 µM.
